pIC50: −log10 of the molar value. Where two headings read alike, the source gives them in different places.
Tests used:
[1] = molecular target: T1, MsEH (Mus musculus, UniProt P34914); experiment: sEH inhibitory activity, PHOME fluorescence assay (MsEH); format: biochemical
T1 sequence (P34914 1-554): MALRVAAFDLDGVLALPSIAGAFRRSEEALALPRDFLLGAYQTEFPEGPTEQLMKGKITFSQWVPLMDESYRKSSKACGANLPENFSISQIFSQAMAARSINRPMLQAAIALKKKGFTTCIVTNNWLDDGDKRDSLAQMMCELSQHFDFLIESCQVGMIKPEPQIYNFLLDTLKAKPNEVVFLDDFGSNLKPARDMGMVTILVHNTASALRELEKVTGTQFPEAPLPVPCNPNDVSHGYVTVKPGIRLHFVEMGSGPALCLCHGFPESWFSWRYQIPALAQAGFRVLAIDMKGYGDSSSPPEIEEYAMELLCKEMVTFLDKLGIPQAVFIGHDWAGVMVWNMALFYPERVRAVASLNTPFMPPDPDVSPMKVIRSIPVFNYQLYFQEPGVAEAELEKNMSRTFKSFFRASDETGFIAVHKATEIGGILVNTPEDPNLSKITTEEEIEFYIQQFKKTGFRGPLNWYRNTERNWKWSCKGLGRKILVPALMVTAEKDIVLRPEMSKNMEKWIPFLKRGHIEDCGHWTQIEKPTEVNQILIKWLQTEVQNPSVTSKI
Source text: (§1) Detection principle: a specific substrate, (3-phenyl-oxy)-acetic acid cyano-(6-methoxy-naphthalen-2-yl)methyl ester, namely PHOME, is non-fluorescent but can be hydrolyzed under the action of sEH enzyme to generate a product 6-methoxy-2-naphthaldehyde. The 6-methoxy-2-naphthaldehyde can emit fluorescence with a wavelength of 465 nm under 330 nm light wave excitation, and an intensity of the detected fluorescence signal is inversely proportional to an inhibitory effect on the sEH enzyme. Based on the above principle, the inhibition rates of samples with different concentrations were calculated compared with the positive control group. The IC50 value of the compound was calculated based on the inhibition rate and concentration using SPSS 20 software.
(§2) 25 mM Tris-HCl buffer (pH=7.4, containing 0.1 mg/mL BSA): […] BAS was added to 12.5 mL of 1 M Tris-HCl buffer, followed by diluting with purified water, and a resulting mixture was adjusted to a pH value of 7.4 with hydrochloric acid, and diluted to 500 mL.
(§3) PHOME solution: 0.79 mg PHOME was dissolved in 106 μL DMSO to obtain a 20 mM PHOME solution, which was diluted to ⅓ mM with Tris-HCl buffer before use.
(§4) sEH solution: sEH (5 mg/mL) stock solution was stored in a refrigerator at −80° C. and diluted to 4 μg/mL with 25 mM Tris-HCl buffer before use.
(§5) A sample powder to be tested was dissolved in DMSO to a 20 mM solution, stored in a refrigerator at −20° C. for later use, and diluted with Tris-HCl buffer to corresponding concentrations when used.
(§6) Experimental design: solvent group, 100% activity group (A), inhibitor group (B), positive control group (C), as shown in Table 1.
(§7) Three replicate wells were set for each sample, and the average value of the three replicate wells was the fluorescence value (F) of the compound to be tested. […] The IC50 value of the compound was calculated based on the inhibition rate and concentration using SPSS 20 software.

[2] = molecular target: T2, HsEH (Homo sapiens, UniProt P34913); experiment: biochemical; format: biochemical; details: for IC50: PHOME substrate 50 μM, sEH 400 ng/ml, 37° C., 10 min, fluorescence 330/465 nm, read-out: HsEH IC50 (nM) Inhibitory activity against HsEH
T2 sequence (P34913 1-555): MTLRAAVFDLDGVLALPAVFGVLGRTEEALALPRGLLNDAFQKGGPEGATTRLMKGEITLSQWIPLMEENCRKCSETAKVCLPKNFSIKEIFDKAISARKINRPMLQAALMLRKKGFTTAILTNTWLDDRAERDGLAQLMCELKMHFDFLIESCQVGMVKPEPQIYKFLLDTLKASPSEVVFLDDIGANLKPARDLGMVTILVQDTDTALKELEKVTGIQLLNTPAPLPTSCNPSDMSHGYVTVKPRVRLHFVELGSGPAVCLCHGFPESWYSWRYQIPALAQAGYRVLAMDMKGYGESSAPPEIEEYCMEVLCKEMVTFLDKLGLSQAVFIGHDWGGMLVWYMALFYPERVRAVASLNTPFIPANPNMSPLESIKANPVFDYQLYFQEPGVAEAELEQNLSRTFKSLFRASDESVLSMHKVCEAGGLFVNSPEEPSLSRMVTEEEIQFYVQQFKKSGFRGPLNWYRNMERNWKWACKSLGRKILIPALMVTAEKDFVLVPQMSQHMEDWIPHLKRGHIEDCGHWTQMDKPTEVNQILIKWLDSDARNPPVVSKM
Source text: as §1, §2, §3, §4, §5, §6, §7

Structure (SMILES) | pIC50 [1] | IC50 [2] | IC50 ([1]; PHOME substrate 50 μM, sEH 400 ng/ml, 37° C., 10 min, fluorescence 330/465 nm, read-out: MsEH IC50 (nM) Inhibitory activity against MsEH) | pIC50 [2]
CCN(CC)C(=O)C1CCN(C(=O)c2ccc(NC(=O)NC34CC5CC(C)(CC(C)(C5)C3)C4)c(F)c2)CC1 [CC-111, 1-(4-(3-((1r,3R,5S,7r)-3,5-dimethyladamantan-1-yl)ureido)-3-fluorobenzoyl)-N,N-diethylpiperidine-4-carboxamide] | 9.28 | 2.2 nM | – | –
C[C@]12C[C@@H]3C[C@](C)(C1)C[C@@](NC(=O)Nc1ccc(CN4CCC[C@H](C(=O)O)C4)cc1F)(C3)C2 [CL-5, (S)-1-(4-(3-((1r,3R,5S,7S)-3,5-dimethyladamantan-1-yl)ureido)-3-fluorobenzyl) piperidine-3-carboxylic acid] | – | 2.3 nM | 0.61 nM | –
CCC(=O)N1CCCN(C(=O)[C@H]2CCCN(C(=O)c3ccc(NC(=O)NC45CC6CC(C)(CC(C)(C6)C4)C5)c(F)c3)C2)CC1 [GL-102, 1-((1r,3R,5S,7S)-3,5-dimethyladamantan-1-yl)-3-(2-fluoro-4-((S)-3-(4-propionyl-1,4-diaza-1-carbonyl)piperidine-1-carbonyl)phenyl) urea] | 9.24 | 0.56 nM | – | –
CC12CC3CC(C)(C1)CC(NC(=O)Nc1ccc(CN4CCC[C@H](C(=O)NC(CO)(CO)CO)C4)cc1F)(C3)C2 [CL-115, (S)—N-(1,3-dihydroxy-2-(hydroxymethyl)propan-2-yl)-1-(4-(3-((1r,3R,5S,7S)-3,5-dimethyladamantan-1-yl)ureido)-3-fluorobenzyl) piperidine-3-carboxamide] | 9.49 | 0.14 nM | – | –
CC12CC3CC(C)(C1)CC(NC(=O)Nc1ccc(CN4CCCN(C(=O)CC5CCN(CCO)CC5)CC4)cc1F)(C3)C2 [GL-21, 1-((1r,3R,5S,7r)-3,5-dimethyladamantan-1-yl)-3-(2-fluoro-4-((4-(2-(1-(2-hydroxyethyl)piperidin-4-yl)acetyl)-1,4-diaza-1-yl)methyl)phenyl) urea] | 9.21 | – | – | 8.33
CC12CC3CC(C)(C1)CC(NC(=O)Nc1ccc(C(=O)N4CCC(C(=O)NCCO)CC4)cc1F)(C3)C2 [CC-114, 1-(4-(3-((1r,3R,5S,7r)-3,5-dimethyladamantan-1-yl)ureido)-3-fluorobenzoyl)-N-(2-hydroxyethyl) piperidine-4-carboxamide] | 9.59 | 3.43 nM | – | –
CCC(C)C(=O)N1CCC(CC(=O)N2CCCN(Cc3ccc(NC(=O)NC45CC6CC(C)(CC(C)(C6)C4)C5)c(F)c3)CC2)CC1 [GL-2, 1-((1r,3R,5S,7r)-3,5-dimethyladamantan-1-yl)-3-(2-fluoro-4-((4-(2-(1-(2-methylbutyryl)piperidin-4-yl)acetyl)-1,4-diaza-1-yl)methyl)phenyl) urea] | 9.80 | 0.77 nM | – | –
CC12CC3CC(C)(C1)CC(NC(=O)Nc1ccc(CN4CCC[C@H](C(=O)NCCO)C4)cc1F)(C3)C2 [CL-114, (S)-1-(4-(3-((1r,3R,5S,7S)-3,5-dimethyladamantan-1-yl)ureido)-3-fluorobenzyl)-N-(2-hydroxyethyl) piperidine-3-carboxamide] | 9.74 | 0.63 nM | – | –
CC12CC3CC(C)(C1)CC(NC(=O)Nc1ccc(CN4CCC(C(=O)N(CCO)CCO)CC4)cc1F)(C3)C2 [CL-109, 1-(4-(3-((1r,7r)-3,5-dimethyladamantan-1-yl)ureido)-3-fluorobenzyl)-N,N-bis(2-hydroxyethyl) piperidine-4-carboxamide] | 9.26 | 6.72 nM | – | –
CC(O)CNC(=O)[C@H]1CC[C@H](NC(=O)c2ccc(NC(=O)NC34CC5CC(C)(CC(C)(C5)C3)C4)c(F)c2)CC1 (stereo partly drawn) [ZT-111, 4-(3-((1r,3R,5S,7r)-3,5-dimethyladamantan-1-yl)ureido)-3-fluoro-N-((1r,4R)-4-((2-hydroxypropyl)carbamoyl)cyclohexyl)benzamide] | 9.36 | 1.54 nM | – | –
CCC(=O)N1CCC(CC(=O)N2CCCN(Cc3ccc(NC(=O)NC45CC6CC(C)(CC(C)(C6)C4)C5)c(F)c3)CC2)CC1 [GL-1, 1-((1r,3R,5S,7r)-3,5-dimethyladamantan-1-yl)-3-(2-fluoro-4-((4-(2-(1-propionylpiperidin-4-yl)acetyl)-1,4-diaza-1-yl)methyl)phenyl) urea] | 10.15 | 0.33 nM | – | –
CC(=O)N1CCC(CC(=O)N2CCCN(Cc3ccc(NC(=O)NC45CC6CC(C)(CC(C)(C6)C4)C5)c(F)c3)CC2)CC1 [GL-3, 1-(4-((4-(2-(1-acetylpiperidin-4-yl)acetyl)-1,4-diaza-1-yl)methyl)-2-fluorophenyl)-3-((1r,3R,5S,7r)-3,5-dimethyladamantan-1-yl) urea] | 9.96 | 0.49 nM | – | –
CCN(CC)C(=O)[C@H]1CCCN(Cc2ccc(NC(=O)NC34CC5CC(C)(CC(C)(C5)C3)C4)c(F)c2)C1 [CL-106, (S)-1-(4-(3-((1r,3R,5S,7S)-3,5-dimethyladamantan-1-yl)ureido)-3-fluorobenzyl)-N,N-diethylpiperidine-3-carboxamide] | 9.30 | 0.35 nM | – | –
